In article PMC4007590, “Development of an oligonucleotide-based fluorescence assay for the identification of tyrosyl-DNA phosphodiesterase 1 (TDP1) inhibitors” (Analytical Biochemistry, 2014):
Like-named read-outs stand apart in the source and are kept apart here.

Target: T1, tyrosyl-DNA phosphodiesterase 1 (TDP1) (Homo sapiens, UniProt Q9NUW8)
T1 construct: catalytic domain of human TDP1
Experiment: Gyrasol fluorescence quench assay, FITC-phosphotyrosyl […]mer oligonucleotide substrate, recombinant TDP1
Assay type: biochemical

T1 sequence (Q9NUW8 149-608 limits assumed): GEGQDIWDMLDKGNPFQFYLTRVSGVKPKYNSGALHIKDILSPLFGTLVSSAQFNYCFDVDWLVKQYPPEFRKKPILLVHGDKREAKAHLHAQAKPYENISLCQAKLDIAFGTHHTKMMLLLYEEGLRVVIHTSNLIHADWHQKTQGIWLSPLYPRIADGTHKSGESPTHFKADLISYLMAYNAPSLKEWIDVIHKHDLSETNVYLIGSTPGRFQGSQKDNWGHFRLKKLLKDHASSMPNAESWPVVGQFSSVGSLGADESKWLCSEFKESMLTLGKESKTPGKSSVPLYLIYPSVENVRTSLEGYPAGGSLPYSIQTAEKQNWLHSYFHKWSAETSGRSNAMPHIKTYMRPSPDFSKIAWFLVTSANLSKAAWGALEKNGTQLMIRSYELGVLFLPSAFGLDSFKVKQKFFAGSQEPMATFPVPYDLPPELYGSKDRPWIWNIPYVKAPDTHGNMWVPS

Row | IC50 (read-out: IC50) | Compound | IC50
1 | – | [O]=[V]([OH])([OH])[OH] [sodium orthovanadate] | 4 µM
2 | 5 µM | Cc1ccc(C(=O)Nc2ccc(S(=O)(=O)O)c3cc(S(=O)(=O)O)cc(S(=O)(=O)O)c23)cc1NC(=O)c1cccc(NC(=O)Nc2cccc(C(=O)Nc3cc(C(=O)Nc4ccc(S(=O)(=O)O)c5cc(S(=O)(=O)O)cc(S(=O)(=O)O)c45)ccc3C)c2)c1 [Suramin] | –
